Test results as given in US20140079836A1, “METHODS AND COMPOSITIONS FOR ALTERING HEALTH, WELLBEING, AND LIFESPAN” (LifeSpan Extension, LLC, priority 2008, published 2014).
Several values for one entry are separate records, joined by “and”; a condition that tells them apart may be missing. Equal values may be shown once.

Tested on: genes involved in longevity (Array 1)
Test: Custom RT-PCR microarray (Array 1) gene expression in skin fibroblasts, UVB/UVA1
Type: cell-based, human
Experimental: Seeding of cells: On Day 1, each cell culture was seeded into 6 well cluster dishes at ˜1.5×10^5 cells in 4 mls medium per well. Three wells were seeded per test condition or control.
Experimental phase: On Day 3, wells were washed 1× with 2 mls medium, fed back 2 mls medium without fetal bovine serum and preincubated for 30-60 minutes before challenge with test or control conditions. After the preincubation, medium was aspirated from the wells and 2.5 mls of test or control condition in medium with 1% fetal bovine serum was pipetted into the appropriate wells.
(3) UVA1, UVB exposed and unexposed cells without test condition were used as controls. The experimental phase ended at 24 hours post UV exposure. Cells from each test and control parameter were then prepped for RNA isolation as described below.
UVB/UVA1 exposure: Cells exposed to UV received 200 mJ/cm^2 UVB/1 MED UVA1 using Thermo Oriel solar simulator model SP66923-3056. Cells were exposed from the bottom of the culture dish. The UV dose delivered to the cells was adjusted for interference from the plastic in the culture dish.
Preparation of RNA: The RNA was isolated using the Qiagen RNEasy Plus Mini Kit according to the manufacturer's protocol which can be found on the World Wilde Web at qiagen.com/literature/Defaultaspx?Term=&Language=EN&LiteratureType=4& ProductCategory=10162. The RNA was quantified and examined for purity using the 260/280 nm read method in a μ Quant spectrophotometer before use in the array.
Creation and Performance of a Custom Microarray (“Array 1”): Through the Custom Array design service of Superarray Bioscience Corporation, a 96 well RT-PCR microarray (“Array 1”) was developed to illustrate genetic responses in cells treated as above for specific genes involved in longevity as well as the relevant quality controls. The array was performed in compliance with manufacturer's guidelines and by recommended manufacturer's protocol as can be found on the World Wilde Web at superarray.com/Manual/perarrayplate.pdf
(§1) Custom Microarray Results: The results from the microarrays were determined using the delta CT method which uses comparisons of control genes and threshold cycles of genes of interest to generate relative expression values. The full set of experimental conditions was cross referenced and the data is provided herewith in DATA TABLE 3.
Preparation of RNA: The RNA was isolated using the Qiagen RNEasy Plus Mini Kit according to the manufacturer's protocol which can be found on the World Wide Web at qiagen.com/literature/Default. aspx?Term=&Language=EN&LiteratureType=4&ProductCategory=10162.
The RNA was quantified and examined for purity using the 260/280 nm read method in a μ Quant spectrophotometer before use in the array.
Creation and Performance of the Custom Microarray: Through the Custom Array design service of Superarray Bioscience Corporation, a 96 well RT-PCR Microarray was developed to illustrate genetic responses in cells treated as above for specific genes involved in longevity as well as the relevant quality controls. The array was performed in compliance with manufacturer's guidelines and by recommended manufacturer's protocol as can be found on the World Wide Web at superarray.com/Manual/perarrayplate.pdf.
as §1, with “4.” for “3.”
as §1, with “5. […]” for “3.”

[1] = donor four cell line, UVB, agent 4 hr incubation
[2] = donor four cell line, UVB, agent continuous incubation
[3] = donor three idebenone + UVB 4 hr Incubation
[4] = donor three idebenone + UVB Continuous Incubation
[5] = donor three idebenone + UVB vs. Green tea + UVB 4 hr Incubation
[6] = donor three vs. donor two idebenone + UVB 4 hr Incubation
[7] = donor three vs. donor two idebenone + UVB Continuous Incubation

COC1=C(OC)C(=O)C(CCCCCCCCCCO)=C(C)C1=O [Idebenone, 6-(10-hydroxydecyl)-2,3-dimethoxy-5-methyl-1,4-benzoquin-one]
IFI44 expression [1]: 2.63 | NADSYN1 expression [1]: 2.21 | NFKB1 expression [1]: 3.24 | PARP1 Expression [1]: 4.27 | TERT expression [1]: 8.54 | IFI44 expression [2]: 2.98 | TERT expression [2]: 4.36 | TERT expression (donor one cell line, UVB, agent continuous incubation): 8.50 | ACE expression fold change [3]: 2.29 | ACTB expression fold change [3]: −2.01 | APOE expression fold change [3]: −1.32 | BAX expression fold change [3]: 1.41 | BCL2 expression fold change [3]: 4.13 | CASP2 expression fold change [3]: 1.31 | CASP9 expression fold change [3]: 2.06 | CCL4L1 expression fold change [3]: 9.82 | CLK1 expression fold change [3]: 1.41 | COX1 expression fold change [3]: −1.11 | CREBBP expression fold change [3]: −1.32 | CYP19A1 expression fold change [3]: 6.94 | DDC expression fold change [3]: 4.74 | GAPDH expression fold change [3]: −1.04 | GH1 expression fold change [3]: 3.35 | HIGX1A fold change [3]: 1.93 | HLA-DRA expression fold change [3]: 4.27 | HPRT1 expression fold change [3]: 3.47 | HSPA1A expression fold change [3]: 1.68 | HSPA1B expression fold change [3]: 1.99 | HSPA1L expression fold change [3]: −1.42 | IFI44 expression fold change [3]: 2.63 | IGF1 expression fold change [3]: 4.13 | IGF2 expression fold change [3]: −1.24 | IL1A expression fold change [3]: 2.54 | IL6 expression fold change [3]: 1.27 | IL10 expression fold change [3]: 1.46 | KRAS expression fold change [3]: 1.27 | MAPK14 expression fold change [3]: 1.46 | NADSYN1 expression fold change [3]: 2.21 | NFKB1 expression fold change [3]: 3.24 | NOS2A expression fold change [3]: 16.51 | PARP1 expression fold change [3]: 4.27 | PARP2 expression fold change [3]: 3.72 | PPARG expression fold change [3]: 1.99 | PPC fold change [3]: 1.07 and 1.23 | PTGS2 expression fold change [3]: 2.63 | RTC fold change [3]: 3.13 and 4.74 | SHC1 expression fold change [3]: 1.19 | SIRT1 expression fold change [3]: 1.41 | SOD1 expression fold change [3]: 1.41 | SOD2 expression fold change [3]: 1.07 | TEP1 expression fold change [3]: 1.23 | TERT expression fold change [3]: 8.54 | TNF expression fold change [3]: −1.19 | TP53 expression fold change [3]: −1.15 | ACE expression fold change [4]: 2.34 | ACTB expression fold change [4]: −3.93 | APOE expression fold change [4]: 1.49 | BAX expression fold change [4]: 2.26 | BCL2 expression fold change [4]: 7.09 | CASP2 expression fold change [4]: 1.09 | CASP9 expression fold change [4]: 5.19 | CCL4L1 expression fold change [4]: 10.02 | CLK1 expression fold change [4]: 1.71 | COX1 expression fold change [4]: 1.05 | CREBBP expression fold change [4]: −1.21 | CYP19A1 expression fold change [4]: 5.56 | DDC expression fold change [4]: 4.84 | GAPDH expression fold change [4]: −1.83 | GH1 expression fold change [4]: 2.18 | HIGX1A fold change [4]: 1.71 | HLA-DRA expression fold change [4]: 3.93 | HPRT1 expression fold change [4]: 1.83 | HSPA1A expression fold change [4]: 1.34 | HSPA1B expression fold change [4]: 1.71 | HSPA1L expression fold change [4]: −5.37 | IFI44 expression fold change [4]: 2.98 | IGF1 expression fold change [4]: 3.42 | IGF2 expression fold change [4]: −1.09 | IL1A expression fold change [4]: 1.97 | IL6 expression fold change [4]: −1.83 | IL10 expression fold change [4]: 1.13 | KRAS expression fold change [4]: 1.90 | MAPK14 expression fold change [4]: 1.65 | NADSYN1 expression fold change [4]: 1.44 | NFKB1 expression fold change [4]: 2.34 | NOS2A expression fold change [4]: 3.80 | PARP1 expression fold change [4]: 1.65 | PARP2 expression fold change [4]: 3.42 | PPARG expression fold change [4]: 3.19 | PPC fold change [4]: 1.25 and 1.21 | PTGS2 expression fold change [4]: 1.83 | SHC1 expression fold change [4]: −1.49 | SIRT1 expression fold change [4]: 1.77 | SOD1 expression fold change [4]: −1.71 | SOD2 expression fold change [4]: 1.17 | TEP1 expression fold change [4]: 1.13 | TERT expression fold change [4]: 4.36 | TNF expression fold change [4]: −1.09 | TP53 expression fold change [4]: 1.21 | ACE expression fold change [5]: −1.11 | ACTB expression fold change [5]: −1.57 | APOE expression fold change [5]: 1.41 | BAX expression fold change [5]: −2.23 | BCL2 expression fold change [5]: −1.15 | CASP2 expression fold change [5]: −2.47 | CASP9 expression fold change [5]: −1.94 | CCL4L1 expression fold change [5]: 9.48 | CLK1 expression fold change [5]: −1.11 | COX1 expression fold change [5]: −1.81 | CREBBP expression fold change [5]: −1.00 | CYP19A1 expression fold change [5]: 9.48 | DDC expression fold change [5]: 42.08 | GAPDH expression fold change [5]: −1.57 | GH1 expression fold change [5]: 16.51 | HIGX1A fold change [5]: 17.09 | HLA-DRA expression fold change [5]: 18.96 | HPRT1 expression fold change [5]: 1.41 | HSPA1A expression fold change [5]: −1.87 | HSPA1B expression fold change [5]: −2.08 | HSPA1L expression fold change [5]: 1.80 | IFI44 expression fold change [5]: −1.28 | IGF1 expression fold change [5]: 8.85 | IGF2 expression fold change [5]: −1.15 | IL1A expression fold change [5]: 7.70 | IL6 expression fold change [5]: −1.04 | IL10 expression fold change [5]: 4.74 | KRAS expression fold change [5]: −1.69 | MAPK14 expression fold change [5]: −1.63 | NADSYN1 expression fold change [5]: −1.63 | NFKB1 expression fold change [5]: −1.04 | NOS2A expression fold change [5]: 34.18 | PARP1 expression fold change [5]: −1.57 | PARP2 expression fold change [5]: 7.44 | PPARG expression fold change [5]: 1.74 | PTGS2 expression fold change [5]: 2.14 | SHC1 expression fold change [5]: −1.11 | SIRT1 expression fold change [5]: −1.15 | SOD1 expression fold change [5]: −1.32 | SOD2 expression fold change [5]: −1.24 | TEP1 expression fold change [5]: −1.00 | TERT expression fold change [5]: 7.97 | TNF expression fold change [5]: 7.44 | TP53 expression fold change [5]: −1.32 | ACE expression fold change [6]: 1.16 | ACTB expression fold change [6]: 1.43 | APOE expression fold change [6]: −1.06 | BAX expression fold change [6]: 1.95 | BCL2 expression fold change [6]: 1.76 | CASP2 expression fold change [6]: 1.33 | CASP9 expression fold change [6]: 1.58 | CCL4L1 expression fold change [6]: 1.08 | CLK1 expression fold change [6]: −1.22 | COX1 expression fold change [6]: 1.12 | CREBBP expression fold change [6]: 1.70 | CYP19A1 expression fold change [6]: 1.01 | DDC expression fold change [6]: 1.08 | GAPDH expression fold change [6]: 1.16 | GH1 expression fold change [6]: −1.06 | HIGX1A fold change [6]: −1.50 | HLA-DRA expression fold change [6]: 1.38 | HPRT1 expression fold change [6]: 1.38 | HSPA1A expression fold change [6]: 2.16 | HSPA1B expression fold change [6]: 2.32 | HSPA1L expression fold change [6]: −1.14 | IFI44 expression fold change [6]: 1.53 | IGF1 expression fold change [6]: −1.79 | IGF2 expression fold change [6]: −1.03 | IL1A expression fold change [6]: −1.40 | IL6 expression fold change [6]: −6.01 | IL10 expression fold change [6]: 1.76 | KRAS expression fold change [6]: 1.76 | MAPK14 expression fold change [6]: 1.48 | NADSYN1 expression fold change [6]: 1.08 | NFKB1 expression fold change [6]: 1.01 | NOS2A expression fold change [6]: −1.56 | PARP1 expression fold change [6]: 2.32 | PARP2 expression fold change [6]: 1.16 | PPARG expression fold change [6]: 1.29 | PTGS2 expression fold change [6]: 2.95 | SHC1 expression fold change [6]: 1.20 | SIRT1 expression fold change [6]: 1.53 | SOD1 expression fold change [6]: 1.24 | SOD2 expression fold change [6]: −1.35 | TEP1 expression fold change [6]: 1.76 | TERT expression fold change [6]: −1.14 | TNF expression fold change [6]: 1.95 | TP53 expression fold change [6]: −1.31 | ACE expression fold change [7]: 1.40 | ACTB expression fold change [7]: 4.88 | APOE expression fold change [7]: −2.48 | BAX expression fold change [7]: −1.64 | BCL2 expression fold change [7]: −1.53 | CASP2 expression fold change [7]: −1.38 | CASP9 expression fold change [7]: −1.88 | CCL4L1 expression fold change [7]: −2.09 | CLK1 expression fold change [7]: −1.04 | COX1 expression fold change [7]: −2.32 | CREBBP expression fold change [7]: 1.14 | CYP19A1 expression fold change [7]: −2.48 | DDC expression fold change [7]: −1.58 | GAPDH expression fold change [7]: 2.13 | GH1 expression fold change [7]: 1.40 | HIGX1A fold change [7]: −2.16 | HLA-DRA expression fold change [7]: 1.31 | HPRT1 expression fold change [7]: 2.20
